Data published in ChEMBL document CHEMBL1133497, “Design and synthesis of anticonvulsive agents as gamma-vinyl GABA-based potential dual acting prodrugs and their biological activities” (2000).

What was measured:
Type in all cases: functional
[1] = organism: Mus musculus; assay: Effective dose required for anticonvulsive activity in pentylenetetrazole (PTZ) test
[2] = organism: Mus musculus; assay: Effective dose required for anticonvulsive activity in bicuculline (BIC) test
[3] = organism: Mus musculus; assay: Anticonvulsive activity in picrotoxin (PCR) induced seizure test
[4] = organism: Mus musculus; assay: Effective dose required for anticonvulsive activity in maximal electroshock seizure (MES) test
[5] = system: Mus musculus; assay: Protection from picrotoxin-induced (0.27 mmol/kg) convulsion over 3 hr at 100 mg/kg in 4 mice
[6] = system: Mus musculus; assay: Protection from picrotoxin-induced (0.27 mmol/kg) convulsion over 16 hr at 100 mg/kg in 4 mice
[7] = system: Mus musculus; assay: Protection from picrotoxin-induced (0.27 mmol/kg) convulsion over 9 hr at 100 mg/kg in 4 mice
[8] = system: Mus musculus; assay: Protection from picrotoxin-induced (0.27 mmol/kg) convulsion over 6 hr at 100 mg/kg in 4 mice
[9] = system: Mus musculus; assay: Effective dose required for anticonvulsive activity in pentylenetetrazole (PTZ) test at >0.1 mmol/kg
[10] = organism: Mus musculus; assay: Anticonvulsive activity in picrotoxin (PCR) induced seizure test (ineffective)
[11] = organism: Mus musculus; assay: Effective dose required for anticonvulsive activity in maximal electroshock seizure (MES) test; Not effective
[12] = organism: Mus musculus; assay: Effective dose required for anticonvulsive activity in bicuculline (BIC) test; Not effective
[13] = organism: Mus musculus; assay: Effective dose required for anticonvulsive activity in pentylenetetrazole (PTZ) test; Not effective

C=CC(CCC(=O)OC)NC(=O)C1CCCNC1 (stereo not drawn)
ED50 [1]: 410 µmol/kg | ED50 [2]: 310 µmol/kg | ED50 [3]: 260 µmol/kg | ED50 [4]: > 540 µmol/kg

C=CC(N)CCC(=O)N1CCC(C(=O)OC)CC1 (stereo not drawn)
ED50 [1]: 320 µmol/kg | No. of mice protected [5]: 2 | No. of mice protected [6]: 0 | ED50 [2]: 150 µmol/kg | No. of mice protected [7]: 0 | ED50 [3]: 260 µmol/kg | ED50 [4]: > 540 µmol/kg | No. of mice protected [8]: 2

C=CC(N)CCC(=O)N1CCCC(C(=O)OC)C1 (stereo not drawn)
ED50 [1]: 150 µmol/kg | No. of mice protected [5]: 2 | No. of mice protected [6]: 0 | ED50 [2]: 140 µmol/kg | No. of mice protected [7]: 0 | ED50 [3]: 100 µmol/kg | ED50 [4]: > 540 µmol/kg | No. of mice protected [8]: 0

C=CC(CCC(=O)OC)NC(=O)C1CCNCC1 (stereo not drawn)
ED50 [1]: > 540 µmol/kg | ED50 [2]: 460 µmol/kg | ED50 [3]: 390 µmol/kg | ED50 [4]: > 540 µmol/kg

C=CC(N)CCC(=O)N1CCCC1=O (stereo not drawn)
ED50 [1]: > 540 µmol/kg | ED50 [2]: 200 µmol/kg | ED50 [3]: 260 µmol/kg | ED50 [4]: > 540 µmol/kg

O=C1CCCN1 [2-PYRROLIDONE]
ED50 [9]: 540 µmol/kg | ED50 [10]: > 1000 µmol/kg | ED50 [11]: > 1000 µmol/kg | ED50 [12]: > 1000 µmol/kg

O=C(O)C1CCNCC1 [ISONIPECOTIC ACID]
ED50 [12]: > 1000 µmol/kg

O=C(O)C1CCCNC1 (stereo not drawn) [NIPECOTIC ACID]
ED50 [11]: > 1000 µmol/kg | ED50 [12]: > 1000 µmol/kg

C=CC(N)CCC(=O)O (stereo not drawn) [VIGABATRIN]
No. of mice protected [5]: 4 | No. of mice protected [6]: 0 | ED50 [11]: > 1000 µmol/kg | ED50 [13]: > 1000 µmol/kg | ED50 [2]: 220 µmol/kg | No. of mice protected [7]: 3 | ED50 [3]: 210 µmol/kg | No. of mice protected [8]: 4
